Measurements taken from US8496927B2, “CD20 negatively converted B-cell malignant lymphoma cell line and utilization thereof” (National University Corporation Nagoya University, priority 2006, dated 2013).

Tests used:
[1] = system: DNMT1 (DNA methyltransferase 1); test: DNMT1 expression in RRBL1 cells by western blotting; assay type: cell-based, human; settings: day 1 after Aza injection
Method: (§1) Subsequently, changes with time regarding CD20 mRNA expression and CD20 protein expression were examined (FIG. 7B) Aza was injected to a culture solution on day 0, and cultured at 37° C. for 24 hours (day 1). Then, the cells were washed and further cultured for 1 to 6 days (day 2 to day 7). RNA and protein were extracted from the cells after culturing, and subjected to analyses by western blotting (using anti-CD20 antibody, anti-IRF4 antibody, anti-PU.1 antibody, anti-DNMT1 antibody, and […]) and RT-PCR.
(§2) IRF4 and Pu.1 are transcriptional factors that have been reported to bind to a CD20 gene promoter. […] DNMT1 (DNA methyltransferase 1) has reported to be decomposed by Aza.

CD20 protein = CD20 protein expression in RRBL1 cells by western blotting; assay type: cell-based, human; settings: for induction of CD20 protein: added to RRBL1, analyzed with elapse of time (summary)
Method: (§3) 5-aza-2′-deoxycytidine (SIGMA, hereinafter abbreviated as “Aza”) was injected to a culture solution of RRBL1 cells, and the cells were washed after 24 hours. After culturing for further 2 days, RNA and the whole-cell lysate was extracted from the cells, and subjected to analyses by RT-PCR and western blotting. As a result, CD20 mRNA expression increased after the Aza treatment (FIG. 7A, RT, lane 2). In the western blotting analysis, the CD20 protein expression was observed after the Aza treatment (FIG. 7A, IB lane 2).
as §1
Aza and TSA (Trichostatin: histone deacetylase inhibitor) were injected singly or in combination to a culture supernatant of RRBL1 cells. The cells were washed after one day from Aza injection. After further cultured for 2 days, protein was extracted from the cells. In the TSA injected group, protein was extracted from the cells at the point of 24 hours from TSA injection. For the group injected in combination use, Aza was first injected and cultured for 1 day. The cells after washed were cultured for 1 day, then TSA was injected thereto, and further, the cells were dissolved after the elapse of one day to extract protein. Thus obtained each sample was subjected to SDS-PAGE, and western blotting using an anti-CD20 antibody and an anti-GAPDH antibody was then performed.

CD20 mRNA = CD20 mRNA expression in RRBL1 cells by RT-PCR; assay type: cell-based, human; settings: for induction of CD20 mRNA: added to RRBL1, analyzed with elapse of time (summary)
Method: as §3, §1

IRF4 and Pu.1 = IRF4 and Pu.1 expression in RRBL1 cells by western blotting; assay type: cell-based, human; settings: time course after Aza injection
Method: as §1, §2

[2] = system: CD20 positive malignant lymphoma; test: Use experience of rituximab-containing chemotherapy, Hospital of Nagoya University; assay type: in vivo, human
Method: Cases of CD20 positive malignant lymphoma in which rituximab-containing chemotherapy was carried out in the Hospital of Nagoya University, School of Medicine are shown. The rituximab-containing chemotherapies were performed in 124 cases in about 5 years from […] to 2006, and in 36 cases (29%) among 124 cases, recurrence or relapse were observed. In 19 cases, about half of these cases, tissue biopsies were carried out again, and in 5 cases (26.3% among the cases subjected to rebiopsy), negative conversion of CD20 expression was confirmed. Prognoses of the cases where CD20 was negatively converted were extremely bad, and patients in all the cases died within 1 year after the confirmation of negative conversion.
In about 5 years from September 2001, CD20 positive malignant lymphoma cases subjected to chemotherapy including rituximab in this facility was 124 cases (FIG. 13), and 36 cases (29.0%) in the 124 cases were recurred or relapsed.

Raji cells = test: Rituximab resistance test: number of living cells after culture with rituximab; assay type: cell-based; settings: rituximab 500 mg/ml, 10% FCS, 37° C. for 2 days
Method: (§4) Rituximab ([…]) was added to a PRMI1640 culture solution containing 10% FCS and the solution was cultured at 37° C. for 2 days, and the number of living cells was measured. Further, Raji cells were cultured under the same conditions (control group). […] Thus, it was confirmed that the RRBL1 cells indicates rituximab resistance in vitro.

CD20 positive lymphoma = settings: Non-patent document 10; cited from earlier work
RRBL1 cells [3] = test: Number of living RRBL1 cells treated with Aza and TSA, cultured with or without rituximab; assay type: cell-based, human; settings: cultured for 2 days
Excerpt: RRBL1 cells (untreated group) and RRBL1 cells treated with Aza and TSA (treated group) were respectively cultured for 2 days in the absence of rituximab (●, ▪) or in the presence of rituximab (♦, ▴), and the number of living cells were compared (FIG. 8C).

RRBL1 cells [4] = test: Rituximab resistance test: number of living cells after culture with rituximab; assay type: cell-based, human; settings: rituximab 500 mg/ml, 10% FCS, 37° C. for 2 days
Method: as §4

[5] = RRBL1 cells, Aza on day 0, washed day 1, cultured to day 7
[6] = RRBL1 cells, washed after 24 hours, cultured further 2 days

Compound	DNMT1 expression [1]	culturing time by which CD20 expression is induced (CD20 protein; RRBL1) [days]	CD20 protein expression, change with time (CD20 protein; [5])	day on which CD20 protein expression level reached peak (CD20 protein; [5]) [days]	CD20 protein expression (western blotting) (CD20 protein; [6])	induction of CD20 protein (CD20 protein)	CD20 mRNA expression, change with time (CD20 mRNA; [5])	CD20 mRNA expression (RT-PCR) (CD20 mRNA; [6])	induction of CD20 mRNA (CD20 mRNA)	IRF4 and Pu.1 expression (IRF4 and Pu.1)	cases with negative conversion (disappearance or decrease) of CD20 expression ([2]; 5 of 19 recurred/relapsed cases subjected to rebiopsy, FCM and immunostaining) [%]	cases recurred or relapsed ([2]; 36 of 124 cases given rituximab-containing chemotherapy, about 5 years from 2001) [%]	proliferation (number of living cells) (Raji cells)	patients showing rituximab resistance (CD20 positive lymphoma)	proliferation (number of living cells) in the presence of rituximab (RRBL1 cells [3])	proliferation (number of living cells) (RRBL1 cells [4])
Nc1ncn([C@H]2C[C@H](O)[C@@H](CO)O2)c(=O)n1 [Aza, 5-aza-2′-deoxycytidine]	significant decrease	1 to 7	increased from day 1	3	observed	possible	the same tendency as the CD20 protein expression	increased	possible	tendency of temporal increase	–	–	–	–	–	–
CC(/C=C/C(=O)NO)=C\[C@@H](C)C(=O)c1ccc(N(C)C)cc1 [TSA, Trichostatin A]	–	–	–	–	–	possible	–	–	possible	–	–	–	–	–	–	–
rituximab	–	–	–	–	–	–	–	–	–	–	26.3	29	significantly repressed	5 out of 48	significantly inhibited	repression of proliferation was not observed
